Measured values as given in US20230263822A1, “MODULATION OF FACTOR 11 EXPRESSION” (Ionis Pharmaceuticals, Inc., priority 2008, published 2023).
Strand notation (5' to 3'): a small letter for the sugar, then the base; units joined by * are phosphorothioate-linked, units joined directly phosphodiester-linked; [ ] holds rarer units or linkages, { } end groups; capitals alone tell only the bases. e = 2'-O-(2-methoxyethyl) (MOE); [5mC] = 5-methylcytosine; d = 2'-deoxy (DNA)

Key:
human Factor 11 mRNA = assay: Dose-dependent inhibition of human Factor 11 in HepG2 cells, electroporation 0.7-20 uM (Example 4); format: cell-based; details: for percent inhibition of Factor 11 at 0.7 μM / percent inhibition of Factor 11 at 2.2 μM / percent inhibition of Factor 11 at 6.7 μM / percent inhibition of Factor 11 at 20 μM: relative to untreated control cells
Method in brief: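 HepG2 cells electroporated with antisense gapmers at 0.7, 2.2, 6.7 and 20 μM, treated ~16 h. Factor 11 mRNA quantified by qRT-PCR (primer probe set RTS 2966), normalised to RIBOGREEN total RNA; expressed as percent inhibition versus untreated control cells.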

Factor 11 mRNA = Factor 11 mRNA in cynomolgus monkey liver, day 55 (Example 46); format: in vivo, cynomolgus monkeys; details: for % inhibition of Factor 11 mRNA in liver relative to the PBS control: 25 mg/kg subcutaneously, primer probe set LTS00301; for Factor 11 mRNA in liver vs PBS control: cynomolgus monkeys, 25 mg/kg
Description: (§1) Groups, each consisting of two male and two female monkeys, were injected subcutaneously with 25 mg/kg of ISIS 416850, ISIS 449709, ISIS 445522, ISIS 449710, ISIS 449707, ISIS 449711, ISIS 449708, 416858, and ISIS 445531. Antisense oligonucleotide was administered to the monkeys at 25 mg/kg three times per week for week 1 and 25 mg/kg twice per week for weeks 2 to 8. A control group, consisting of two male and two female monkeys was injected subcutaneously with PBS according to the same dosing regimen. Body weights were taken 14 days and 7 days before the start of treatment and were then measured weekly throughout the treatment period. Blood samples were collected 14 days and 5 days before the start of treatment and subsequently several times during the dosing regimen for PT and aPTT measurements, and measurement of various hematologic factors. On day 55, the monkeys were euthanized by exsanguination while under deep anesthesia, and organs harvested for further analysis.
On day 55, RNA was extracted from liver tissue for real-time PCR analysis of Factor 11 using primer probe set LTS00301. Results are presented as percent inhibition of Factor 11, relative to PBS control.

[1] = Liver function, ALT, AST, bilirubin in cynomolgus monkeys (Example 46); format: in vivo; details: plasma
Description: as §1
Plasma concentrations of alanine transaminase (ALT) and aspartate transaminase (AST) were measured and the results are presented in Tables 152 and 153 expressed in IU/L. Plasma levels of bilirubin were also measured and results are presented in Table 154 expressed in mg/dL. As observed in Tables 152-154, there were no significant increases in any of the liver metabolic markers after antisense oligonucleotide treatment.

Row | Substance | IC50 (human Factor 11 mRNA) [µM] | percent inhibition of Factor 11 at 0.7 μM (human Factor 11 mRNA) [%] | percent inhibition of Factor 11 at 2.2 μM (human Factor 11 mRNA) [%] | percent inhibition of Factor 11 at 6.7 μM (human Factor 11 mRNA) [%] | percent inhibition of Factor 11 at 20 μM (human Factor 11 mRNA) [%] | % inhibition of Factor 11 mRNA in liver relative to the PBS control (Factor 11 mRNA) [%] | Factor 11 mRNA in liver vs PBS control (Factor 11 mRNA) | ALT ([1]; Day 31) [IU/L] | AST ([1]; Day 31) [IU/L] | Bilirubin ([1]; Day 31) [mg/dL] | ALT ([1]; Day 55) [IU/L] | AST ([1]; Day 55) [IU/L] | Bilirubin ([1]; Day 55) [mg/dL] | ALT ([1]; Day −5) [IU/L] | AST ([1]; Day −5) [IU/L] | Bilirubin ([1]; Day −5) [mg/dL] | ALT ([1]; Day −14) [IU/L] | AST ([1]; Day −14) [IU/L] | Bilirubin ([1]; Day −14) [mg/dL]
1 | 412206 (antisense e[5mC]*e[5mC]*eG*eT*eG*d[5mC]*dA*dT*d[5mC]*dT*dT*dT*d[5mC]*dT*dT*eG*eG*e[5mC]*eA*eT) [compound 412206] | 2.7 | 22 | 39 | 81 | 94 |  |  |  |  |  |  |  |  |  |  |  |  |  | 
2 | 416856 (antisense GGCATTGGTGCACAGTTTCT; 5-10-5 gapmer, further chemistry not given here) [compound 416856] | 5.1 | 0 | 29 | 47 | 93 |  |  |  |  |  |  |  |  |  |  |  |  |  | 
3 | 445522 (antisense eG*e[5mC]*eA*e[5mC]*eA*dG*dT*dT*dT*d[5mC]*dT*dG*dG*e[5mC]*eA*eG*eG*e[5mC]) [compound 445522] |  |  |  |  |  | 89 |  |  |  |  |  |  |  |  |  |  |  |  | 
4 | 445531 (antisense eG*eG*e[5mC]*eA*eT*dT*dG*dG*dT*dG*d[5mC]*dA*d[5mC]*eA*eG*eT*eT*eT) [compound 445531] |  |  |  |  |  | 66 |  |  |  |  |  |  |  |  |  |  |  |  | 
5 | ISIS 416850: MOE gapmer, nucleobases 1275 to 1318 of SEQ ID NO: 1 (Table 8) (antisense TGCACAGTTTCTGGCAGGCC; MOE gapmer, wing and gap sizes not given here) |  |  |  |  |  |  | significant reduction of Factor 11 mRNA | 45 | 46 | 0.26 | 55 | 57 | 0.17 | 42 | 45 | 0.22 | 48 | 62 | 0.26
6 | ISIS 416858: MOE gapmer, nucleobases 1275 to 1318 of SEQ ID NO: 1 (Table 8) (antisense ACGGCATTGGTGCACAGTTT; MOE gapmer, wing and gap sizes not given here) |  |  |  |  |  |  | significant reduction of Factor 11 mRNA | 46 | 60 | 0.16 | 58 | 69 | 0.16 | 66 | 100 | 0.23 | 43 | 64 | 0.25
7 | ISIS 445522: 5-8-5 or 6-8-6 MOE microwalk gapmer (Table 44) (antisense eG*e[5mC]*eA*e[5mC]*eA*dG*dT*dT*dT*d[5mC]*dT*dG*dG*e[5mC]*eA*eG*eG*e[5mC]) |  |  |  |  |  |  | significant reduction of Factor 11 mRNA | 40 | 46 | 0.14 | 60 | 79 | 0.18 | 45 | 47 | 0.20 | 43 | 62 | 0.24
8 | ISIS 445531: 5-8-5 or 6-8-6 MOE microwalk gapmer (Table 44) (antisense eG*eG*e[5mC]*eA*eT*dT*dG*dG*dT*dG*d[5mC]*dA*d[5mC]*eA*eG*eT*eT*eT) |  |  |  |  |  |  | significant reduction of Factor 11 mRNA | 57 | 47 | 0.13 | 73 | 49 | 0.11 | 73 | 46 | 0.18 | 84 | 78 | 0.22
9 | ISIS 449707: 3-8-3, 4-8-4, 2-10-2, 3-10-3 or 4-10-4 MOE microwalk gapmer (Table 46) (antisense e[5mC]*eA*e[5mC]*eA*dG*dT*dT*dT*d[5mC]*dT*dG*dG*e[5mC]*eA*eG*eG) |  |  |  |  |  |  | significant reduction of Factor 11 mRNA | 52 | 50 | 0.13 | 63 | 52 | 0.16 | 56 | 53 | 0.19 | 54 | 64 | 0.27
10 | ISIS 449708: 3-8-3, 4-8-4, 2-10-2, 3-10-3 or 4-10-4 MOE microwalk gapmer (Table 46) (antisense eA*e[5mC]*eA*dG*dT*dT*dT*d[5mC]*dT*dG*dG*e[5mC]*eA*eG) |  |  |  |  |  |  | significant reduction of Factor 11 mRNA | 44 | 56 | 0.14 | 46 | 50 | 0.14 | 54 | 53 | 0.21 | 48 | 74 | 0.27
11 | ISIS 449709: 3-8-3, 4-8-4, 2-10-2, 3-10-3 or 4-10-4 MOE microwalk gapmer (Table 46) (antisense eG*e[5mC]*eA*e[5mC]*dA*dG*dT*dT*dT*d[5mC]*dT*dG*dG*d[5mC]*eA*eG*eG*e[5mC]) |  |  |  |  |  |  | significant reduction of Factor 11 mRNA | 65 | 45 | 0.15 | 102 | 71 | 0.18 | 77 | 51 | 0.19 | 73 | 62 | 0.24
12 | ISIS 449710: 3-8-3, 4-8-4, 2-10-2, 3-10-3 or 4-10-4 MOE microwalk gapmer (Table 46) (antisense e[5mC]*eA*e[5mC]*dA*dG*dT*dT*dT*d[5mC]*dT*dG*dG*d[5mC]*eA*eG*eG) |  |  |  |  |  |  | significant reduction of Factor 11 mRNA | 37 | 37 | 0.15 | 45 | 64 | 0.22 | 42 | 38 | 0.19 | 37 | 52 | 0.24
13 | ISIS 449711: 3-8-3, 4-8-4, 2-10-2, 3-10-3 or 4-10-4 MOE microwalk gapmer (Table 46) (antisense eA*e[5mC]*dA*dG*dT*dT*dT*d[5mC]*dT*dG*dG*d[5mC]*eA*eG) |  |  |  |  |  |  |  | 48 | 47 | 0.13 | 54 | 47 | 0.13 | 137 | 78 | 0.16 | 49 | 58 | 0.23
